Laboratory results reported in patent publication US20050009837A1, “Modulators of lipid metabolism and methods of use” (City of Hope, priority 2003, published 2005).

Assays:
human LXRα = biological target: T1, human LXRα (Homo sapiens, UniProt Q13133); assay: Full-length hLXRα/hRXRα LXREx3 TK-Luc reporter assay in transfected CV-1 cells; type: cell-based; details: 20 μM, 40 hours
T1 construct: expressed in transfected cells; host or cells: CV-1 cells
T1 sequence (Q13133 1-447): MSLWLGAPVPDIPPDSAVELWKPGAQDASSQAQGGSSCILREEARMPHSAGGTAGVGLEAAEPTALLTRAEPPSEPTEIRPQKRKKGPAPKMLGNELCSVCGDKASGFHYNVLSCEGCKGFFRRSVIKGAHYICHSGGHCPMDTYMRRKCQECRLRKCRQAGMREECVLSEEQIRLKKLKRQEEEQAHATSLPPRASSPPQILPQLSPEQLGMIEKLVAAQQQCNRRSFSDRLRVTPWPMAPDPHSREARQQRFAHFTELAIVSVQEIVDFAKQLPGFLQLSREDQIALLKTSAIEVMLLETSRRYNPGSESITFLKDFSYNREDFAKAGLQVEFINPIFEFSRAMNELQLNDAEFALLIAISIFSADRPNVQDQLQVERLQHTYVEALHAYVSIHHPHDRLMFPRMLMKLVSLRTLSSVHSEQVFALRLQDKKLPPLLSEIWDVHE
T1 sequence (P19793 1-462 partner): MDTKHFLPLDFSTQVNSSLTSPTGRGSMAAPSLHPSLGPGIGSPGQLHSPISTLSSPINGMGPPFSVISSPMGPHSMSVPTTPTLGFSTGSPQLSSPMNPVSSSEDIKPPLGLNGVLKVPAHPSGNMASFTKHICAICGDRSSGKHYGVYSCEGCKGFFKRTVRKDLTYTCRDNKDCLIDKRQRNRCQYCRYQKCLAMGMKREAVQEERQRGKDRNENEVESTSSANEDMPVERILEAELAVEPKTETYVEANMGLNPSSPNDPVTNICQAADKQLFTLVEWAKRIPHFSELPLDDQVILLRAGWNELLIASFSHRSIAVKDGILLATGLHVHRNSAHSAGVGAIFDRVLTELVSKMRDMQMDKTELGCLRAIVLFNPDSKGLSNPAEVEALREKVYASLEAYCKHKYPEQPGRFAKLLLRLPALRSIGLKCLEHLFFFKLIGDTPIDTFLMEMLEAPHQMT
Method: CV-1 cells were grown in DMEM supplemented with 10% resin-charcoal stripped fetal bovine serum, 50 U/ml penicillin G and 50 μg/ml streptomycin sulfate at 37° C. in 5% CO2. Cells were plated to 50-80% confluence one day prior to transfection using phenol red-free DMEM-FBS. The cells were transfected by lipofection using N-[1-(2,3-dioleoyloxy)propyl]-N,N,N-ammonium methyl sulfate according to manufacturer's instructions (Boehringer Mannheim).
Genes encoding the following full-length proteins, which are suitable for use in the studies described herein, were cloned into pCMX: human RXRα (Gene Bank accession X52773) and human LXRα (GenBank accession U22662). The cells were transfected with CMX-βgal and luciferase constructs. The CMX-βGal construct contained the ligand binding domain of human RXR (hRXRα) and the ligand binding domain of human LXRα (hLXRα) as indicated in FIG. 1. The luciferase reporter construct (LXREx3 TK-Luc) contained the herpes virus thymidine kinase promoter (−105/+51) linked to three copies of the response element LXRE. After transfection, the cells were treated with 20 μM of a synthetic azole test compound or vehicle alone for 40 hours in phenol red-free DMEM-FBS.

[1] = biological target: T2, LXRβ - coactivator SRC-1 interaction (Homo sapiens, UniProt P55055); assay: Mammalian two-hybrid assay Gal-SRC-1 / VP-LXRβ LBD / RXR LBD in CV-1 cells; type: cell-based; details: 40 hours
T2 construct: expression plasmids for Gal-SRC-1, VP-LXRα LBD or VP-LXRβ LBD, the RXR LBD; expressed in transfected cells; host or cells: CV-1 cells
T2 sequence (P55055 222-460 limits assumed, one chain of several): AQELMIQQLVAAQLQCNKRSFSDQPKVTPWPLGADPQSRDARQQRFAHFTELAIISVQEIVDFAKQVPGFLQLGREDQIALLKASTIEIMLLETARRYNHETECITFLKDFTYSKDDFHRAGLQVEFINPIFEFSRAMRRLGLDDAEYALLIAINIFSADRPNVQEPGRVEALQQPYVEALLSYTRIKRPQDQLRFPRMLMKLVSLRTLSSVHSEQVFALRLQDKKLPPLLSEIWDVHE
Source text: One characteristic of nuclear receptor antagonists is their ability to displace coactivators bound to ligand-activated receptors. Thus, if Clotrimazole is an antagonist of LXR, it should inhibit the recruitment of coactivators. To test this, a mammalian two-hybrid assay was used. In this assay, CV-1 cells were transfected with Gal-SRC-1, VP-LXRα or VP-LXRβ, the RXR LBD and a reporter construct. In this type of assay, therefore, only a protein-protein interaction between the coactivator SRC-1 and LXR can result in transcriptional activity. The mammalian two-hybrid assay of FIG. 6 was performed by transfecting CV-1 cells with expression plasmids for Gal-SRC-1, VP-LXRα LBD or VP-LXRβ LBD, the RXR LBD and the USAGx4 Tkluc reporter. Cells were treated for 40 hours with Clotrimazole before luciferase and β-galactosidase activities were measured. Gal-SRC in FIG. 6 refers to a fusion between the Gal4 DNA binding domain and the three receptor interaction domains of SRC-1.

[2] = biological target: T3, LXRβ-RXR heterodimers / SRC-1 (Homo sapiens, UniProt P55055); assay: In vitro coactivator recruitment/displacement assay (gel), LXRβ, RXR, GST-SRC-1, 32P-LXRE probe; type: biochemical; details: 10 μM
T3 construct: made in house; host or cells: receptors translated in vitro
T3 sequence (P55055 whole entry, one chain of several): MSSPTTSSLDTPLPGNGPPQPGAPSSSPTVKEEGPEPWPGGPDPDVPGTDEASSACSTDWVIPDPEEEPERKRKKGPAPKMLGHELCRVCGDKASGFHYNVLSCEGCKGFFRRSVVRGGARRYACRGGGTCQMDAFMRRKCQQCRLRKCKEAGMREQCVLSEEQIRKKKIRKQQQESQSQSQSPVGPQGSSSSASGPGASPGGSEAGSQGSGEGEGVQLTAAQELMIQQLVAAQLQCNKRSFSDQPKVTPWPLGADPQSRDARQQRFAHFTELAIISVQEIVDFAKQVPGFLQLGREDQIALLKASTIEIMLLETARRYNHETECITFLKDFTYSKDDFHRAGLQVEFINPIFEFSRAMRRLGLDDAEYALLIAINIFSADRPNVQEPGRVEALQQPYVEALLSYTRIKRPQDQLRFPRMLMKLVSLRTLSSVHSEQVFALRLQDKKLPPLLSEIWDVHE
Method: This was tested more directly using an in vitro coactivator recruitment/coactivator displacement assay. This assay has the advantage that it is performed with receptors bound to DNA and that it measures a direct interaction between receptor and coactivator with no interference by other proteins that may indirectly stabilize the complex. The assay was performed by mixing in vitro translated LXRα or LXRβ, RXR, 5 μg of purified GST-SRC-1 and a ^32P-labeled LXRE probe with or without 10 μM Clotrimazole according to previously described methods. Wang et al., Mol. Cell 3:543-553, 1999. The complexes then were separated through 5.5% polyacrylamide gels. The probe used represents a DR-4 element derived from the human SREBP-1c promoter (nt 337-361, accession no. AB046200).

[3] = test system: −241/+12 mSREBP-1c promoter; assay: SREBP-1c promoter reporter assay in CV-1 cells; type: cell-based; details: 10 μM
Method: This promoter is directly regulated by LXR via two LXREs present within the first 240 base pairs of the proximal promoter. Thus, we transfected CV-1 cells with the −241/+12 mSREBP-1c promoter along with LXRα or LXRβ. CV-1 cells were transiently transfected with full length LXRα or LXRβ, the SREBP-1c promoter or the SREBP-1c LXREm reporter and CMX-β-gal (as an internal control) in lipid-stripped serum. After transfection, the cells were treated with 10 μM Clotrimazole. The luciferase activity was normalized to the internal β-galactosidase control (reporter activity).

RXR = RXR (Homo sapiens, UniProt P19793); assay: RXR activity (data not shown); type: cell-based
mouse PXR = mouse PXR (Mus musculus, UniProt O54915); details: cited from earlier work
Sequence of mouse PXR (O54915 whole entry): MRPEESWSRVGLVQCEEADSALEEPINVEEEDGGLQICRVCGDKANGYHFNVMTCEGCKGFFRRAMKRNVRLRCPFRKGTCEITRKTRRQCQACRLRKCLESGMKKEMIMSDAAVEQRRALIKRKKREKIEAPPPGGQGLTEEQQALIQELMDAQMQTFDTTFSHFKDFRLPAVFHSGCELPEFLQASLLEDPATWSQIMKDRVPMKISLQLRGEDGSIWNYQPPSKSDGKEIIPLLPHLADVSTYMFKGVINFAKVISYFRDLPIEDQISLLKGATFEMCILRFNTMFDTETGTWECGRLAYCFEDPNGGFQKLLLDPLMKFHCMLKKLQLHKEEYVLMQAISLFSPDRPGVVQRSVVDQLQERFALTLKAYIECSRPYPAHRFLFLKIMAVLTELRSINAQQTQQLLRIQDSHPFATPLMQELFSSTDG

Q: Which “antagonism of constitutive activation mediated by LXR (hLXRα activity, LXREx3 TK-Luc)” value (human LXRα) does the source give for `Clc1ccccc1C(c1ccccc1)(c1ccccc1)n1ccnc1` [Clotrimazole] here?
A: Its value is “antagonize the constitutive activation mediated by LXR”.

Q: What about the “interaction of LXRβ with coactivator SRC-1” value [1] of the same molecule?
A: Its value is “inhibited this interaction”.

Q: And the “effect on LXRβ-RXR heterodimers (bound to LXRE probe)” value ([2]; lane 7)?
A: The value was “no effect”.

Q: What about the “interaction of LXRβ-RXR with SRC-1” value ([2]; lane 8) of the same molecule?
A: The value was “prevented the interaction with SRC-1”.

Q: What about the SREBP-1c promoter activity ([3]; absence of LXR, lipid-stripped serum) of the same molecule?
A: The SREBP-1c promoter activity was “repressed”.

Q: And the “SREBP-1c LXREm mutant promoter activity” value ([3]; both LXREs inactivated, absence or presence of LXR)?
A: Its value is “did not repress the promoter activity”.

Q: And the “LXRα-induced SREBP-1c promoter activity” value ([3]; co-transfected LXRα)?
A: Its value is “repressed the LXR-induced activity”.

Q: And the “LXRβ-induced SREBP-1c promoter activity” value ([3]; co-transfected LXRβ)?
A: The value was “repressed the LXR-induced activity”.

Q: What about the “effect on RXR activity” value (RXR) of the same molecule?
A: The value was “no effect”.

Q: What about the “activity on mouse PXR” value (mouse PXR) of the same molecule?
A: Its value is “agonist”.
